“Also recorded” adds a separate entry of the source.
Key:
[1] = system: SVV replication in Per.C6 cells; assay: SVV replication in Per.C6 cells with or without IFN-α pretreatment, virus yield by plaque assay; format: cell-based, human; settings: Per.C6 cells pretreated with 500 units IFN-α
Protocol: Per.C6 cells were pretreated with 500 units IFN-α before infection with SVV at MOI=1. Virus yields were determined by plaque assay 24 h post infection.
Plaque assays. Samples for virus titration were produced by harvesting cells and medium, followed by three cycles of freezing and thawing and then by centrifugation at 5000×g for 5 min. All titrations were done on monolayers of Per.C6 cells in 35 mm plates. Ten-fold serial dilutions of virus were made in PBS+0.1 mg/ml BSA (Sigma) and 0.1 mL of each dilution was added per well. Plates were incubated at 37° C. for 45 min with rocking and overlay was then added. A two-overlay system was used. […] Plaque assays were incubated for 72 hrs at 37° C. Cells were then fixed with 10% TCA (Sigma) and stained with 0.1% crystal violet (Sigma) in 20% ethanol.

[2] = system: SVV replication in HeLa cells; assay: SVV replication in Tem 8+ HeLa cells, virus yield by plaque assay; format: cell-based
Protocol: FIG. 2A. SVV replication in HeLa cells can be enhanced with staurosporine (SSP). FIG. 2B. Inhibition of SVV replication by IFN-α can be reversed with SSP in Per.C6 cells. TEM 8+ HeLa cells or Per.C6 cells were pretreated with 500 units IFN-α before infection with SVV at MOI 1. 300 nM SSP was added at time 0. Virus yields determined by plaque assay 24 h post infection. Results are representative of three independent experiments.
FIGS. 3A-3B are series of histogram depicting the effect of Trichostatin A on SVV replication. FIG. 3A. SVV replication in HeLa cells can be enhanced with Trichostatin A. FIG. 3B. Inhibition of SVV replication by IFN-α can be reversed with Trichostatin A in Per.C6 cells. TEM 8+ HeLa cells or Per.C6 cells were pretreated with 500 units IFN-α before infection with SVV at MOI 1. 1 μM Trichostatin A was added at time 0. Virus yields determined by plaque assay 24 h post infection. Results are representative of three independent experiments.
FIGS. 4A-4B are series of histogram depicting the effect of Torin 2 A on SVV replication. FIG. 4A. SVV replication in HeLa cells can be enhanced with Torin 2 A. FIG. 4B. Inhibition of SVV replication by IFN-α can be reversed with Torin 2 in Per.C6 cells. TEM 8+ HeLa cells or Per.C6 cells were pretreated with 500 units IFN-α before infection with SVV at MOI 1. 2 μM Torin 2 was added at time −30 min. Virus yields determined by plaque assay 24 h post infection. Results are representative of three independent experiments.
Cells and viruses. Cells were maintained in DMEM supplemented with 10% fetal bovine serum (Per.C6) or 10% bovine serum (HeLa), 2 mM L-glutamine (Invitrogen), and 1% penicillin-streptomycin. Viral stocks were produced by growth in Per.C6 cells as previously described (23).
Cytokines and Inhibitors. IFN-α and Trichostatin A were purchased from Sigma, Inc. (St. Louis, MO). […] All compounds were dissolved in DMSO.
Virus infections. Infections were performed in 35 mm dishes. Cells were counted at the time of infection and viral stocks were diluted in PBS+0.01% BSA (Sigma, St. Louis, MO) for infections at the appropriate MOI. One hundred microliters of diluted virus were used to infect each plate at 37° C. for 45 min with rocking. Cells were then washed twice with PBS and covered with 1 mL of appropriate media; samples taken at this time are called 0 time point. Mock infected cells were treated with PBS+0.01% BSA instead of virus. Three independent infections were done.
Plaque assays. […]
Removal of acetyl moieties from histones is catalyzed by enzymes known as histone deacetylases (HDACs) and leads to […]. […] Sixteen hours after infection virus yields were determined by plaque assay (FIG. 3A). […]

With IFN-α the “production of infectious SVV (virus yields by plaque assay)” value ([1]; SVV MOI 1, 24 h post infection) was “significantly reduced production of infectious SVV; also recorded: reduced virus yields”.
In the case of `CN[C@@H]1C[C@H]2O[C@@](C)([C@@H]1OC)n1c3ccccc3c3c4c(c5c6ccccc6n2c5c31)C(=O)NC4` [staurosporine], the “production of infectious SVV (virus yields by plaque assay)” value ([2]; Tem 8+ HeLa cells, SVV MOI 1, 300 nM SSP added at time 0, 24 h post infection) is reported as “increased production of infectious SVV”.
With `CC(/C=C/C(=O)NO)=C\[C@@H](C)C(=O)c1ccc(N(C)C)cc1` [Trichostatin A] the “effect on inhibition of SVV replication by IFN-α” value ([1]; SVV MOI 1, 1 μM Trichostatin A added at time 0, 24 h post infection) was “reversed the inhibitory effect of IFN-α on SVV replication” and the “SVV infection of non-permissive HeLa cells (virus yields by plaque assay)” value ([2]; HeLa cells grown with Trichostatin A for 24 hours before infection, yields sixteen hours after infection (legend: 1 μM at time 0, 24 h)) was “more efficient”.
In the case of `Nc1ccc(-c2ccc3ncc4ccc(=O)n(-c5cccc(C(F)(F)F)c5)c4c3c2)cn1` [Torin 2], the “SVV replication in the presence of IFN-α” value ([1]; 2 μM Torin 2 at −30 min, SVV MOI 1, 24 h post infection) is reported as “promoted SVV replication”, the “enhanced SVV replication by Torin 2 in the presence of IFN-α” value ([2]; HeLa cells pretreated with 500 units IFN-α, 2 μM Torin 2 at −30 min, SVV MOI 1, 24 h post infection) is reported as “not reduced in the presence of IFN-α” and the “SVV yields (plaque assay)” value ([2]; semi-permissive HeLa cells, SVV MOI 1, 2 μM Torin 2 added at time −30 min, 24 h post infection) is reported as “substantially increased SVV yields”.

Source: patent publication US12502414B2, “Second generation Seneca Valley virus oncolytic therapy: compositions and methods thereof” (SENECA THERAPEUTICS, INC., priority 2019, dated 2025)
